Data published in article PMC7265341, “Quantifying CDK inhibitor selectivity in live cells” (Nature Communications, 2020).
Read-outs that look alike come from different tables or passages of the source.

Legend:
Assay type in all cases: binding
CDK7 = CDK7 (Homo sapiens, UniProt P50613); experiment: NanoBRET live-cell target engagement, NanoLuc-CDK7 in HEK-293; conditions: CDK7, read-out: Inhibition at 10µM (%)
CDK8/Cyclin C = CDK8/Cyclin C (Homo sapiens, UniProt P49336); experiment: NanoBRET live-cell target engagement, NanoLuc-CDK8/Cyclin C in HEK-293; conditions: for IC50: CDK8/C; for inhibition at 10 µM: read-out: Inhibition at 10µM (%), CDK8/C
Chain of CDK8/Cyclin C (P49336 whole entry): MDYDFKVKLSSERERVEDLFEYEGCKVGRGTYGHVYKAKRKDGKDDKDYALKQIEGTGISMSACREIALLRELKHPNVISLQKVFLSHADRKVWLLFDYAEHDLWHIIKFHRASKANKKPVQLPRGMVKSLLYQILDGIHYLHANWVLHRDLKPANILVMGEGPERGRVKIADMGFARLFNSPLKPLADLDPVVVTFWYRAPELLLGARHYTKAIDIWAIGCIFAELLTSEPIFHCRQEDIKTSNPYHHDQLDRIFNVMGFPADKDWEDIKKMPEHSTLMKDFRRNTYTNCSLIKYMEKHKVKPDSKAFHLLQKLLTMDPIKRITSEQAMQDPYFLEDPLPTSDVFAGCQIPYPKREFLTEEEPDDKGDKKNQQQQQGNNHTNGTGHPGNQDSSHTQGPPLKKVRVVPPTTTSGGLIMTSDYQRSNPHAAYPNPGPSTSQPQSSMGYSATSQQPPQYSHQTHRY
Chain of CDK8/Cyclin C (P24863 whole entry partner): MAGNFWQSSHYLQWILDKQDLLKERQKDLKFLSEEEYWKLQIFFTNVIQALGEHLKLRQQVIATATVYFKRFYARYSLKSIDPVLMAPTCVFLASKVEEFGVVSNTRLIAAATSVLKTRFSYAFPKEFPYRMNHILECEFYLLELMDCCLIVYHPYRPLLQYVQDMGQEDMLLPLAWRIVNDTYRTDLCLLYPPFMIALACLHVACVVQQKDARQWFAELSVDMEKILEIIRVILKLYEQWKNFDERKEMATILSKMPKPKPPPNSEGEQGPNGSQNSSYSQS

CDK20/Cyclin H = CDK20/Cyclin H (Homo sapiens, UniProt Q8IZL9); experiment: NanoBRET live-cell target engagement, NanoLuc-CDK20/Cyclin H in HEK-293; conditions: read-out: Inhibition at 10µM (%), CDK20/H
Chain of CDK20/Cyclin H (Q8IZL9 whole entry): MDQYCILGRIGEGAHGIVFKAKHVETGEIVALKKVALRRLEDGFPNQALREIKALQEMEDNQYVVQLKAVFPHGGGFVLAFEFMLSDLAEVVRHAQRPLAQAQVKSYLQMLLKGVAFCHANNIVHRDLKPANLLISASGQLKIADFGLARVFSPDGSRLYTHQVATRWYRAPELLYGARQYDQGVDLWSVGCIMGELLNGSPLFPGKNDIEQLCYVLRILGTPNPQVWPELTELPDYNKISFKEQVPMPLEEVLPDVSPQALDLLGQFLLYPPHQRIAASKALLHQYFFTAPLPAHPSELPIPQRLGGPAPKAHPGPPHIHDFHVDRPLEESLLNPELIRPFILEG
Chain of CDK20/Cyclin H (P51946 whole entry partner): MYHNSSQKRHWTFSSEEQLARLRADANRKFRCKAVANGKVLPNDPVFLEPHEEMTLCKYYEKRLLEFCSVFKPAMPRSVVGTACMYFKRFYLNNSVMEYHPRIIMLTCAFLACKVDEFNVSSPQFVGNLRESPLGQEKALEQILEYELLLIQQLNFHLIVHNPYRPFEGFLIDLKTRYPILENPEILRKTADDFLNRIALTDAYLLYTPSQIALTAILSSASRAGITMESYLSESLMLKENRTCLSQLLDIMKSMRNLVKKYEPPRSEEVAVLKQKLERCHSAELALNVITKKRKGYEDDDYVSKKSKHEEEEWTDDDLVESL

CDK16/Cyclin Y = CDK16/Cyclin Y (Homo sapiens, UniProt Q00536); experiment: NanoBRET live-cell target engagement, CDK16-NanoLuc/Cyclin Y in HEK-293; conditions: read-out: Inhibition at 10µM (%), CDK16/Y
Chain of CDK16/Cyclin Y (Q00536 whole entry): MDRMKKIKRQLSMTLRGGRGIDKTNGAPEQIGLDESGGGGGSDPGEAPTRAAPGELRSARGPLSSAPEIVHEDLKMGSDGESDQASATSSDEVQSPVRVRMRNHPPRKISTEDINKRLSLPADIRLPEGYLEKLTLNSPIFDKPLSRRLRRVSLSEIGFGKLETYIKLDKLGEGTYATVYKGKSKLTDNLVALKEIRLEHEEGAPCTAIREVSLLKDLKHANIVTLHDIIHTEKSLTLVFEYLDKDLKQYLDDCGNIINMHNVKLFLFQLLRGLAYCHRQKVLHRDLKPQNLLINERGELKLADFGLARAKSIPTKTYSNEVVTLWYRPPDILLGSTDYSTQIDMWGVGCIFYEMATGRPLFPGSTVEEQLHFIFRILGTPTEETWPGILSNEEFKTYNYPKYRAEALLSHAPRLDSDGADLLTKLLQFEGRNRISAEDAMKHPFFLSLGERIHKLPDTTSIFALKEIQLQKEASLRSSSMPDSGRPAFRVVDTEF
Chain of CDK16/Cyclin Y (Q8ND76 whole entry partner): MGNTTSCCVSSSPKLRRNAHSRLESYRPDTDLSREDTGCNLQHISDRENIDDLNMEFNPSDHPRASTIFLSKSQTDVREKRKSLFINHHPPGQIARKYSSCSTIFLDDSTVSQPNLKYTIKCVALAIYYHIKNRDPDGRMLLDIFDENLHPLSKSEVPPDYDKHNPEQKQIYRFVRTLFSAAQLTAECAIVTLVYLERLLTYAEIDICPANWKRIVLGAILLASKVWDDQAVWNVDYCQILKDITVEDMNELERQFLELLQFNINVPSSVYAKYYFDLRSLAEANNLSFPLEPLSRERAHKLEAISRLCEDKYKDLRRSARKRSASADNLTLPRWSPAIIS

CDK1/Cyclin E1 = CDK1/Cyclin E1 (Homo sapiens, UniProt P06493); experiment: NanoBRET live-cell target engagement, CDK1-NanoLuc/Cyclin E1 in HEK-293; conditions: CDK1/E1, read-out: Inhibition at 10µM (%)
Chain of CDK1/Cyclin E1 (P06493 whole entry): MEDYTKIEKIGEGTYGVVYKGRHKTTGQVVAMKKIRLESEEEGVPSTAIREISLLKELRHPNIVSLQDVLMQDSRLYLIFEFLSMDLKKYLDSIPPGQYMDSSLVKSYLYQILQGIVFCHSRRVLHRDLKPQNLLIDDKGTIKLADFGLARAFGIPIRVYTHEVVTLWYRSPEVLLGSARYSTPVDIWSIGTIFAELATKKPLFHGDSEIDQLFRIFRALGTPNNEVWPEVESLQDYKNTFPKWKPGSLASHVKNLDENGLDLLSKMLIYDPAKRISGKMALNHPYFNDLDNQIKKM
Chain of CDK1/Cyclin E1 (P24864 whole entry partner): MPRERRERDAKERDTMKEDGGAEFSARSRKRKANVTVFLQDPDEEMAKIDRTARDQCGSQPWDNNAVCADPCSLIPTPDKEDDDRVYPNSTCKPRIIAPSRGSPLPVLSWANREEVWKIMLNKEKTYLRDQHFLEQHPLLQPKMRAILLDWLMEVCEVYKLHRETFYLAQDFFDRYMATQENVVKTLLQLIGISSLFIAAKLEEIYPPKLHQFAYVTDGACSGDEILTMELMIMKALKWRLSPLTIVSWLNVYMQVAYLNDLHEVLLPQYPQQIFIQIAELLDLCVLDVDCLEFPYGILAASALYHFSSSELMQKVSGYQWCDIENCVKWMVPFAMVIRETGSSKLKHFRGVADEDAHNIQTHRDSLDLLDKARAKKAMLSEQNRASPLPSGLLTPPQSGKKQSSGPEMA

CDK9/Cyclin K = CDK9/Cyclin K (Homo sapiens, UniProt P50750); experiment: NanoBRET live-cell target engagement, NanoLuc-CDK9/Cyclin K in HEK-293; conditions: CDK9/K, read-out: Inhibition at 10µM (%)
Chain of CDK9/Cyclin K (P50750 whole entry): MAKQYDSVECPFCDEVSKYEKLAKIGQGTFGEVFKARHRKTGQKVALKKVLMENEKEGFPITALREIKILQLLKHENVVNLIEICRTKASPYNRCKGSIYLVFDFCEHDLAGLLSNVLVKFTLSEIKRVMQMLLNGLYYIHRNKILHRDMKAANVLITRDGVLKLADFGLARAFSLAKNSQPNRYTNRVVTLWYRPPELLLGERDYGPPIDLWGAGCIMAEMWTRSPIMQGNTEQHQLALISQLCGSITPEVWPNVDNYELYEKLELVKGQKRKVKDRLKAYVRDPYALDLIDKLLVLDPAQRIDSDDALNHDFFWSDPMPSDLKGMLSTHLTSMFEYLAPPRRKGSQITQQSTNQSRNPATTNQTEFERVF
Chain of CDK9/Cyclin K (O75909 whole entry partner): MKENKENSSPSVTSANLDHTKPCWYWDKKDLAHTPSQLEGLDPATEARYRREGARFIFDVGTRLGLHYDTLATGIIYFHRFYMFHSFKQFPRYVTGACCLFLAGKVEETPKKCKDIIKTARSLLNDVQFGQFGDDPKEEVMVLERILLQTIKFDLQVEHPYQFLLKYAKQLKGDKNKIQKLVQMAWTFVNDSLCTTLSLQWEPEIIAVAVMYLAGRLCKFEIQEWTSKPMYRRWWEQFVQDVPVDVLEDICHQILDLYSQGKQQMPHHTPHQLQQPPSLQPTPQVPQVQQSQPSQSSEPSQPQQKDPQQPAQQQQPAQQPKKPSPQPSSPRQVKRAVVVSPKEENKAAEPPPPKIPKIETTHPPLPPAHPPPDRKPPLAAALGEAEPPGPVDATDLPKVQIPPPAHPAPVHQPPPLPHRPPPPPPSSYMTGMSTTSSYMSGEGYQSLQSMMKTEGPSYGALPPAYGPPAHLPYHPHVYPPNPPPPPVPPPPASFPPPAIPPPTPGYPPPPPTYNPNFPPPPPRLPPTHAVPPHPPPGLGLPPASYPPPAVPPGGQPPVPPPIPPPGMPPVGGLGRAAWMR

CDK2/Cyclin E1 = CDK2/Cyclin E1 (Homo sapiens, UniProt P24941); experiment: NanoBRET live-cell target engagement, CDK2-NanoLuc/Cyclin E1 in HEK-293; conditions: for inhibition at 10 µM: CDK2/E1, read-out: Inhibition at 10µM (%)
CDK6/Cyclin D1 = CDK6/Cyclin D1 (Homo sapiens, UniProt Q00534); experiment: NanoBRET live-cell target engagement, NanoLuc-CDK6/Cyclin D1 in HEK-293; conditions: CDK6/D1, read-out: Inhibition at 10µM (%)
Chain of CDK6/Cyclin D1 (Q00534 whole entry): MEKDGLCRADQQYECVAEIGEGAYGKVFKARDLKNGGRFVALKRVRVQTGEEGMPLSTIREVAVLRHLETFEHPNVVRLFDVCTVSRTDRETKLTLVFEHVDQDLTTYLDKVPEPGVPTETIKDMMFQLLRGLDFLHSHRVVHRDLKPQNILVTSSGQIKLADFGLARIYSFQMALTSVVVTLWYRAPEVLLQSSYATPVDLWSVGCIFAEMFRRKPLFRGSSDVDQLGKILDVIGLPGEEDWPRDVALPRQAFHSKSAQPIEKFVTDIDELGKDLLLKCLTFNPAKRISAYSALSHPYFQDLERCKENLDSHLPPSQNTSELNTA
Chain of CDK6/Cyclin D1 (P24385 whole entry partner): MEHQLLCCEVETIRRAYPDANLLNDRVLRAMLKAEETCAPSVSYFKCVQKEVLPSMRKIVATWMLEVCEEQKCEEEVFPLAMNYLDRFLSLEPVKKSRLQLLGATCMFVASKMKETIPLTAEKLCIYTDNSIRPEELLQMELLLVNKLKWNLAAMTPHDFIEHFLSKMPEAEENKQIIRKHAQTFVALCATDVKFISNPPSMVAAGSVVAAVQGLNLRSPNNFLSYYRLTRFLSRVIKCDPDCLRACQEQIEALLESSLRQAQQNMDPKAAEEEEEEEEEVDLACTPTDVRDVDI

[1] = LOG10([CCT251545 analog]) (LOG10(µM)) 0.045757
[2] = LOG10([CCT251545 analog]) (LOG10(µM)) 0.522879
[3] = LOG10([CCT251545 analog]) (LOG10(µM)) 1
[4] = LOG10([CCT251545 analog]) (LOG10(µM)) -0.43136
[5] = LOG10([CCT251545 analog]) (LOG10(µM)) -0.90849
[6] = LOG10([CCT251545 analog]) (LOG10(µM)) -1.38561
[7] = LOG10([CCT251545 analog]) (LOG10(µM)) -1.86273
[8] = LOG10([CCT251545 analog]) (LOG10(µM)) -2.33985
[9] = LOG10([CCT251545 analog]) (LOG10(µM)) -2.81697
[10] = LOG10([CCT251545 analog]) (LOG10(µM)) -3.29409
[11] = LOG10([CCT251545 analog]) (LOG10(µM)) -3.77121

Chain of CDK7 (P50613 whole entry): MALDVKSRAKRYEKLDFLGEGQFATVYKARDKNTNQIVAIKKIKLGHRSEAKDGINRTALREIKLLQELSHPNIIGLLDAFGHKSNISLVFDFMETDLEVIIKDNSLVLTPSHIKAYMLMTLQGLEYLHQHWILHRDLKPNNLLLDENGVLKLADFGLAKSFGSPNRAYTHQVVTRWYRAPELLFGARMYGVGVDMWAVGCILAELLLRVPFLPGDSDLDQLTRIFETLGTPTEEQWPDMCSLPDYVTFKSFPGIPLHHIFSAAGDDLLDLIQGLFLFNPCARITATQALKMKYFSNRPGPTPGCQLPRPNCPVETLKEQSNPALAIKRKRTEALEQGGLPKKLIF

COC1CN(C(=O)c2ccc3c(N)ncc(-c4ccc(-c5cnn(C)c5)cc4)c3n2)C1 [CCT251545 analog]
inhibition at 10 µM (CDK7; average): 9.4%
inhibition at 10 µM (CDK7; experiment 1): 11.5%
inhibition at 10 µM (CDK7; experiment 2): 7.3%
IC50 (CDK8/Cyclin C; IC50 (nM), experiment 1): 2.6 nM
IC50 (CDK8/Cyclin C; IC50 (nM), experiment 2): 2 nM
IC50 (CDK8/Cyclin C; IC50 (nM), experiment 3): 12 nM
IC50 (CDK8/Cyclin C; IC50 for CDK/cyclin complexes, live HEK-293, 2 h, mean ± S.E.M. (n=3) or mean (n=2)): 6 nM
CDK8 Occupancy (%) (CDK8/Cyclin C; [1]): 92.3464%
CDK8 Occupancy (%) (CDK8/Cyclin C; [2]): 91.9478%
CDK8 Occupancy (%) (CDK8/Cyclin C; [3]): 84.2411%
CDK8 Occupancy (%) (CDK8/Cyclin C; [4]): 91.0176%
CDK8 Occupancy (%) (CDK8/Cyclin C; [5]): 91.5491%
CDK8 Occupancy (%) (CDK8/Cyclin C; [6]): 90.619%
CDK8 Occupancy (%) (CDK8/Cyclin C; [7]): 85.7027%
CDK8 Occupancy (%) (CDK8/Cyclin C; [8]): 65.2404%
CDK8 Occupancy (%) (CDK8/Cyclin C; [9]): 51.023%
CDK8 Occupancy (%) (CDK8/Cyclin C; [10]): 25.2458%
CDK8 Occupancy (%) (CDK8/Cyclin C; [11]): 19.9309%
inhibition at 10 µM (CDK8/Cyclin C; average): 96%
inhibition at 10 µM (CDK8/Cyclin C; experiment 1): 95%
inhibition at 10 µM (CDK8/Cyclin C; experiment 2): 96.9%
inhibition at 10 µM (CDK20/Cyclin H; experiment 1): 12.7%
inhibition at 10 µM (CDK20/Cyclin H; experiment 2): 4.1%
inhibition at 10 µM (CDK16/Cyclin Y; experiment 1): 6.3%
inhibition at 10 µM (CDK16/Cyclin Y; experiment 2): 1.1%
inhibition at 10 µM (CDK1/Cyclin E1; average): 16.7%
inhibition at 10 µM (CDK1/Cyclin E1; experiment 1): 19.7%
inhibition at 10 µM (CDK1/Cyclin E1; experiment 2): 13.7%
inhibition at 10 µM (CDK9/Cyclin K; average): 7.2%
inhibition at 10 µM (CDK9/Cyclin K; experiment 1): 6.8%
inhibition at 10 µM (CDK9/Cyclin K; experiment 2): 7.5%
inhibition at 10 µM (CDK2/Cyclin E1; average): -18.6%
inhibition at 10 µM (CDK2/Cyclin E1; experiment 1): -37.1%
inhibition at 10 µM (CDK2/Cyclin E1; experiment 2): -0.0714%
CDK2 Occupancy (%) (CDK2/Cyclin E1; [1]): 0.4583%
CDK2 Occupancy (%) (CDK2/Cyclin E1; [2]): 13.0609%
CDK2 Occupancy (%) (CDK2/Cyclin E1; [3]): 32.3087%
CDK2 Occupancy (%) (CDK2/Cyclin E1; [4]): 6.187%
CDK2 Occupancy (%) (CDK2/Cyclin E1; [5]): 0%
CDK2 Occupancy (%) (CDK2/Cyclin E1; [6]): 0.6874%
CDK2 Occupancy (%) (CDK2/Cyclin E1; [7]): 13.5192%
CDK2 Occupancy (%) (CDK2/Cyclin E1; [8]): 9.853%
CDK2 Occupancy (%) (CDK2/Cyclin E1; [9]): 9.166%
CDK2 Occupancy (%) (CDK2/Cyclin E1; [10]): 4.812%
CDK2 Occupancy (%) (CDK2/Cyclin E1; [11]): 2.291%
inhibition at 10 µM (CDK6/Cyclin D1; average): 17.9%
inhibition at 10 µM (CDK6/Cyclin D1; experiment 1): 15.1%
inhibition at 10 µM (CDK6/Cyclin D1; experiment 2): 20.8%
